# According to US4496590A, “Benzyl alcohol derivatives, their preparation and use” (Sterling Drug Inc., priority 1983, dated 1985):
# Biological target: T1, lipoxygenase (Rattus norvegicus, UniProt P12527)
# T1 construct: Single cell suspensions of RBL-1 cells are homogenized to obtain the microsomal fraction containing lipoxygenase and cyclooxygenase; endogenous in cells; host or cells: RBL-1 (rat basophilic leukemia) cells, homogenate / microsomal fraction
# T1 sequence (P12527 1-673): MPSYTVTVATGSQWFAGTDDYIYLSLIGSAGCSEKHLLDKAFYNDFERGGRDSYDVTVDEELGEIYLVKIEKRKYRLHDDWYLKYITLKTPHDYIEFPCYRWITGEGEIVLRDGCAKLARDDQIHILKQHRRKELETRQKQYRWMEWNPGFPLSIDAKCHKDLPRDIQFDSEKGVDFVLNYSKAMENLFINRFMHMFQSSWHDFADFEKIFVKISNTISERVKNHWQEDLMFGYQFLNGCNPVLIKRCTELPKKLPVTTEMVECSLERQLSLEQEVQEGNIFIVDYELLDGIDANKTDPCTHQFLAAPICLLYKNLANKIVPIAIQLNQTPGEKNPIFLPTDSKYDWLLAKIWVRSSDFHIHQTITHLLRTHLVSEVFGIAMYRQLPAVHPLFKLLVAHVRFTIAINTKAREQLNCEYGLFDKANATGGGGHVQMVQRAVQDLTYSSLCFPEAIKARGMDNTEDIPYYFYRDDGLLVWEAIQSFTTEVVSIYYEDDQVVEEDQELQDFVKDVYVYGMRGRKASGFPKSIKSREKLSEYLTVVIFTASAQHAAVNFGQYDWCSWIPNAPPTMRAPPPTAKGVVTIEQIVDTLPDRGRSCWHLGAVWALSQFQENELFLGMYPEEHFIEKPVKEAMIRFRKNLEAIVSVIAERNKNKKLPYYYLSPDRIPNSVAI
# Test: inhibition of lipoxygenase derived from rat basophilic leukemia (RBL-1) cells (L1 5,12-di-HETE and L2 5-HETE formation)
# Type: biochemical
# Conditions: 1 μM, RBL-1 enzyme, L1 5,12-di-HETE; read-out: % Inhibition L1 (lipoxygenase product 5,12-di-HETE)
# Protocol: (§1) The primary screening test used is a determination of the inhibition of lipoxygenase and cyclooxygenase derived from rat basophilic leukemia (RBL-1) cells. The test was carried out according to the following procedure:
# (§2) Single cell suspensions of RBL-1 cells are homogenized to obtain the microsomal fraction containing lipoxygenase and cyclooxygenase. Test compounds are added to the enzyme-containing homogenate for a 5 min preincubation period at 37° C. prior to the addition of ^14 C-arachidonic acid substrate. Following incubation at 37° C. for 15 min, the reaction is stopped by the addition of 2M formic acid and the enzyme-substrate products are extracted into chloroform. An aliquot of the extract is evaporated to dryness, reconstituted in ether to 1/10 original volume, spotted on thin layer chromatography plates and chromatographed. The peak areas of radioactivity representing the products are located by scanning the plates. The quantity of products formed is estimated by measuring the height of the radioactivity peaks observed on the chromatographic scans. Alternatively, the areas of radioactivity are scraped from the plate and the ^14 C quantitated by scintillation counting. The percent inhibition in the formation of the cyclooxygenase product PGD2, designated as Cl and lipoxygenase products, L1 designated for 5,12-di-HETE and L2 for 5-HETE are shown. Compounds with >50% inhibition of L1 and L2 at a screening concentration of 1 μM are considered active.
# (§3) ^(a) Percent inhibition of cyclooxygenase (C1) and lipoxygenase (L1
# (§4) and L2) formation at a dose of 1 μM.
# (§5) ^(b) Inhibitory concentration (μ M) in 50% of tests.
row,Compound,inhibition at 1 µM [%]
1,"OCc1cc(Cl)ccc1Nc1ccc(O)cc1 [Example 3c, 5-Chloro-2-(4-hydroxyphenylamino)benzenemethanol]",81
2,"COc1ccc(Nc2ccc(O)cc2)c(C(C)O)c1 (stereo not drawn) [Example 6c, 2-(4-Hydroxyphenylamino)-5-methoxy-α-methylbenzenemethanol]",89
3,"CC(O)c1ccccc1Nc1ccc(O)cc1 (stereo not drawn) [Example 5c, 2-(4-Hydroxyphenylamino)-α-methylbenzenemethanol]",86
4,"OCc1ccccc1Nc1ccc(O)cc1 [Example 2c, 2-(4-Hydroxyphenylamino)benzenemethanol]",84
5,"COc1ccc(Nc2ccc(O)cc2)c(CO)c1 [Example 1c, 2-(4-Hydroxyphenylamino)-5-methoxybenzenemethanol]",88
6,"COc1ccc(N=C2C=CC(=O)C=C2)c(CO)c1 [Example 8, 4-(2-Hydroxymethyl-4-methoxyphenylimino)-2,5-cyclohexadien-1-one]",85
7,"OCc1ccc(Cl)cc1Nc1ccc(O)cc1 [Example 4c, 4-Chloro-2-(4-hydroxyphenylamino)benzenemethanol]",82

# Same assay, conditions: 1 μM, RBL-1 enzyme, L2 5-HETE; read-out: % Inhibition L2 (lipoxygenase product 5-HETE)
row,Compound,inhibition at 1 µM [%]
1,"OCc1cc(Cl)ccc1Nc1ccc(O)cc1 [Example 3c, 5-Chloro-2-(4-hydroxyphenylamino)benzenemethanol]",99
2,"COc1ccc(Nc2ccc(O)cc2)c(C(C)O)c1 (stereo not drawn) [Example 6c, 2-(4-Hydroxyphenylamino)-5-methoxy-α-methylbenzenemethanol]",98
3,"CC(O)c1ccccc1Nc1ccc(O)cc1 (stereo not drawn) [Example 5c, 2-(4-Hydroxyphenylamino)-α-methylbenzenemethanol]",99
4,"OCc1ccccc1Nc1ccc(O)cc1 [Example 2c, 2-(4-Hydroxyphenylamino)benzenemethanol]",94
5,"COc1ccc(Nc2ccc(O)cc2)c(CO)c1 [Example 1c, 2-(4-Hydroxyphenylamino)-5-methoxybenzenemethanol]",98
6,"COc1ccc(N=C2C=CC(=O)C=C2)c(CO)c1 [Example 8, 4-(2-Hydroxymethyl-4-methoxyphenylimino)-2,5-cyclohexadien-1-one]",96
7,"OCc1ccc(Cl)cc1Nc1ccc(O)cc1 [Example 4c, 4-Chloro-2-(4-hydroxyphenylamino)benzenemethanol]",100

# Same assay, conditions: RBL-1 enzyme, L1 5,12-di-HETE; read-out: IC50 L1 (lipoxygenase product 5,12-di-HETE)
row,Compound,IC50 [µM]
1,"OCc1cc(Cl)ccc1Nc1ccc(O)cc1 [Example 3c, 5-Chloro-2-(4-hydroxyphenylamino)benzenemethanol]",0.06
2,"COc1ccc(Nc2ccc(O)cc2)c(C(C)O)c1 (stereo not drawn) [Example 6c, 2-(4-Hydroxyphenylamino)-5-methoxy-α-methylbenzenemethanol]",0.2
3,"CC(O)c1ccccc1Nc1ccc(O)cc1 (stereo not drawn) [Example 5c, 2-(4-Hydroxyphenylamino)-α-methylbenzenemethanol]",0.2
4,"OCc1ccccc1Nc1ccc(O)cc1 [Example 2c, 2-(4-Hydroxyphenylamino)benzenemethanol]",0.38
5,"COc1ccc(Nc2ccc(O)cc2)c(CO)c1 [Example 1c, 2-(4-Hydroxyphenylamino)-5-methoxybenzenemethanol]",0.2
6,"COc1ccc(N=C2C=CC(=O)C=C2)c(CO)c1 [Example 8, 4-(2-Hydroxymethyl-4-methoxyphenylimino)-2,5-cyclohexadien-1-one]",0.19
7,"OCc1ccc(Cl)cc1Nc1ccc(O)cc1 [Example 4c, 4-Chloro-2-(4-hydroxyphenylamino)benzenemethanol]",0.23

# Same assay, conditions: RBL-1 enzyme, L2 5-HETE; read-out: IC50 L2 (lipoxygenase product 5-HETE)
row,Compound,IC50 [µM]
1,"OCc1cc(Cl)ccc1Nc1ccc(O)cc1 [Example 3c, 5-Chloro-2-(4-hydroxyphenylamino)benzenemethanol]",0.04
2,"COc1ccc(Nc2ccc(O)cc2)c(C(C)O)c1 (stereo not drawn) [Example 6c, 2-(4-Hydroxyphenylamino)-5-methoxy-α-methylbenzenemethanol]",0.16
3,"CC(O)c1ccccc1Nc1ccc(O)cc1 (stereo not drawn) [Example 5c, 2-(4-Hydroxyphenylamino)-α-methylbenzenemethanol]",0.18
4,"OCc1ccccc1Nc1ccc(O)cc1 [Example 2c, 2-(4-Hydroxyphenylamino)benzenemethanol]",0.28
5,"COc1ccc(Nc2ccc(O)cc2)c(CO)c1 [Example 1c, 2-(4-Hydroxyphenylamino)-5-methoxybenzenemethanol]",0.09
6,"COc1ccc(N=C2C=CC(=O)C=C2)c(CO)c1 [Example 8, 4-(2-Hydroxymethyl-4-methoxyphenylimino)-2,5-cyclohexadien-1-one]",0.15
7,"OCc1ccc(Cl)cc1Nc1ccc(O)cc1 [Example 4c, 4-Chloro-2-(4-hydroxyphenylamino)benzenemethanol]",0.16

# Tested on: SRS-A component of immunologically induced broncho-construction
# Test: effect on the SRS-A component of immunologically induced bronchoconstriction in guinea pigs
# Type: in vivo
# Conditions: 0.3 mg/kg, i.v.
# Protocol: The test was carried out according to the following procedure:
# Two weeks after immunization with egg albumin, guinea pigs are prepared for bronchoconstruction determination. One hour prior to antigen challenge, each animal is dosed orally with idomethacin and chlorpheniramine. Animals are anesthetized with sodium pentobarbital, the trachea cannulated and the animal artifically respired. Arachidonic acid is administered intravenously prior to antigen challenge. The resulting bronchoconstruction is recorded by the standard lung overflow procedure and the peak increase in intratracheal pressure (mm Hg) over a 10 minute observation period is recorded. Compounds are evaluated for their ability to prevent the increased intratracheal pressure in an experimental group of animals as compared to the medicated (indomethacin+chlorpheniramine+arachidonic acid) control group. The results are expressed in terms of percent inhibition or as ED50 values (effective does in 50% of the animals).
row,Compound,In vivo Guinea Pig percent inhibition [%]
1,"OCc1ccc(Cl)cc1Nc1ccc(O)cc1 [Example 4c, 4-Chloro-2-(4-hydroxyphenylamino)benzenemethanol]",43

# Same assay, conditions: 1-3 mg/kg, i.v.
row,Compound,In vivo Guinea Pig percent inhibition [%]
1,"OCc1ccc(Cl)cc1Nc1ccc(O)cc1 [Example 4c, 4-Chloro-2-(4-hydroxyphenylamino)benzenemethanol]",63

# Same assay, conditions: Cavia porcellus, iv; guinea pig, i.v.; indomethacin + chlorpheniramine medicated, arachidonic acid, antigen challenge; read-out: In vivo Guinea Pig ED50 i.v.
row,Compound,ED50 [mg/kg]
1,"OCc1cc(Cl)ccc1Nc1ccc(O)cc1 [Example 3c, 5-Chloro-2-(4-hydroxyphenylamino)benzenemethanol]",0.49
2,"OCc1ccccc1Nc1ccc(O)cc1 [Example 2c, 2-(4-Hydroxyphenylamino)benzenemethanol]",0.84
3,"COc1ccc(Nc2ccc(O)cc2)c(CO)c1 [Example 1c, 2-(4-Hydroxyphenylamino)-5-methoxybenzenemethanol]",0.13
4,"COc1ccc(N=C2C=CC(=O)C=C2)c(CO)c1 [Example 8, 4-(2-Hydroxymethyl-4-methoxyphenylimino)-2,5-cyclohexadien-1-one]",0.12

# Biological target: T2, cyclooxygenase (Rattus norvegicus, UniProt Q63921)
# T2 construct: 14C-arachidonic acid substrate, PGD2 measured
# T2 sequence (Q63921 27-602): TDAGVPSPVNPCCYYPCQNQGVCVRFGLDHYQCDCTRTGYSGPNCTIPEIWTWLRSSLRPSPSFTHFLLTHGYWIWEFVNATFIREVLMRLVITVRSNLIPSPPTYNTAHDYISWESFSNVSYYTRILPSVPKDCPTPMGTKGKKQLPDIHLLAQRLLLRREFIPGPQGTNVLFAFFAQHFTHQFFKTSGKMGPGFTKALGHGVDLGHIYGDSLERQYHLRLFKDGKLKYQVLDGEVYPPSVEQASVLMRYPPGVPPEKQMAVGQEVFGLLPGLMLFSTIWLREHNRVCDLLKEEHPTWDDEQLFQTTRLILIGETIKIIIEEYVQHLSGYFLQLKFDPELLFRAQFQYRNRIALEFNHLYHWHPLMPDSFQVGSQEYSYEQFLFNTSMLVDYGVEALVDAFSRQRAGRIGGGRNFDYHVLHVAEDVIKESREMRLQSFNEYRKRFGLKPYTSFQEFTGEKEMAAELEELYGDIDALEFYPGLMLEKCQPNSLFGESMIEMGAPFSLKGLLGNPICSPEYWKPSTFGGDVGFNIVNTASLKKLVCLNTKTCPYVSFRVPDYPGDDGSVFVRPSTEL
# Test: inhibition of cyclooxygenase derived from rat basophilic leukemia (RBL-1) cells (PGD2 formation, C1)
# Type: biochemical
# Conditions: RBL-1 enzyme, read-out: % Inhibition C1 (cyclooxygenase product PGD2)
# Protocol: as §1, §2, §3, §4, §5
row,Compound,inhibition at 1 µM [%]
1,"OCc1cc(Cl)ccc1Nc1ccc(O)cc1 [Example 3c, 5-Chloro-2-(4-hydroxyphenylamino)benzenemethanol]",6
2,"COc1ccc(Nc2ccc(O)cc2)c(C(C)O)c1 (stereo not drawn) [Example 6c, 2-(4-Hydroxyphenylamino)-5-methoxy-α-methylbenzenemethanol]",2
3,"CC(O)c1ccccc1Nc1ccc(O)cc1 (stereo not drawn) [Example 5c, 2-(4-Hydroxyphenylamino)-α-methylbenzenemethanol]",14
4,"OCc1ccccc1Nc1ccc(O)cc1 [Example 2c, 2-(4-Hydroxyphenylamino)benzenemethanol]",4
5,"COc1ccc(Nc2ccc(O)cc2)c(CO)c1 [Example 1c, 2-(4-Hydroxyphenylamino)-5-methoxybenzenemethanol]",2
6,"COc1ccc(N=C2C=CC(=O)C=C2)c(CO)c1 [Example 8, 4-(2-Hydroxymethyl-4-methoxyphenylimino)-2,5-cyclohexadien-1-one]",0
7,"OCc1ccc(Cl)cc1Nc1ccc(O)cc1 [Example 4c, 4-Chloro-2-(4-hydroxyphenylamino)benzenemethanol]",24
